The source made the active and inactive calls. The rule behind the calls is not given here.
Columns and labels:
[1] = test system: Jurkat; experiment: Antiproliferative activity against human Jurkat cells at 5 to 100 uM incubated for 48 hrs by MTS assay; type: functional, cell-based
[2] = test system: Jurkat; experiment: Induction of apoptosis in human Jurkat cells assessed as viable cells at 10 uM incubated 48 hrs by annexin-V and 7AAD staining based flow cytometry (reference value: 91.9%); type: functional; details: read-out: Activity
[3] = test system: Jurkat; experiment: Induction of cell cycle arrest in human Jurkat cells assessed as accumulation at G1 phase at 10 uM incubated for 48 hrs by PI staining based cell counting method (reference value: 71.4%); type: functional
[4] = test system: Jurkat; experiment: Induction of apoptosis in human Jurkat cells assessed as late apoptotic cells at 10 uM incubated 48 hrs by annexin-V and 7AAD staining based flow cytometry (reference value: 3.78%); type: functional
[5] = test system: Jurkat; experiment: Induction of apoptosis in human Jurkat cells assessed as increase in PARP cleavage at 10 uM incubated for 48 hrs by Western blot analysis; type: functional, cell-based
[6] = test system: Jurkat; experiment: Induction of apoptosis in human Jurkat cells assessed as early apoptotic cells at 10 uM incubated 48 hrs by annexin-V and 7AAD staining based flow cytometry (reference value: 3.16%); type: functional
[7] = test system: Jurkat; experiment: Induction of cell cycle arrest in human Jurkat cells assessed as accumulation at S phase at 10 uM incubated for 48 hrs by PI staining based cell counting method (reference value: 12.2%); type: functional
[8] = test system: Jurkat; experiment: Induction of cell cycle arrest in human Jurkat cells assessed as accumulation at G2/M phase at 10 uM incubated for 48 hrs by PI staining based cell counting method (reference value: 16.7%); type: functional
[9] = test system: Jurkat; experiment: Induction of apoptosis in human Jurkat cells assessed as necrotic cells at 10 uM incubated 48 hrs by annexin-V and 7AAD staining based flow cytometry (reference value: 1.16%); type: functional
[10] = test system: Jurkat; experiment: Induction of apoptosis in human Jurkat cells assessed as downregulation in BCL2 protein expression at 10 uM incubated for 48 hrs by Western blot analysis; type: functional, cell-based
[11] = test system: Jurkat; experiment: Induction of apoptosis in human Jurkat cells at 10 uM incubated for 24 to 48 hrs by phase contrast microscopic method; type: functional, cell-based
[12] = test system: Jurkat; experiment: Induction of mitochondrial membrane potential loss in human Jurkat cells assessed as membrane potential at 10 uM incubated for 48 hrs by TMRM staining based flow cytometric analysis (reference value: 94.1%); type: functional

## COc1c(C/C=C(\C)CCC=C(C)C)c(O)cc(O)c1-c1oc2c3c(c(O)cc2c1C=O)OC(C)(C)C=C3
[1]
  Activity: Active

## COc1c(CC=C(C)C)c(O)cc(O)c1-c1oc2c3c(c(O)cc2c1C=O)OC(C)(C)C=C3
[1]
  Activity: Active

## COc1c(CC=C(C)C)c(O)cc2c1[C@@H]1Oc3c(ccc(O)c3CC=C(C)C)[C@@H]1CO2
[1]
  Activity: Active

## COc1c(CC=C(C)C)c(O)cc2oc(=O)c3c4cc(O)c(O)c(CC=C(C)C)c4oc3c12
[2]
  viability at 10 µM: 37.6%
[3]
  Activity: 82.3%
[1]
  Activity: Active
[4]
  Activity: 46.7%
[5]
  Activity: Active
[6]
  Activity: 12.3%
[7]
  Activity: 10.9%
[8]
  Activity: 7.05%
[9]
  Activity: 3.4%
[10]
  Activity: Active
[11]
  Activity: Active
[12]
  Activity: 12.9%

## COc1cc2c(cc1O)OC1c3c(OC)cc(O)c(C/C=C(\C)CCC=C(C)C)c3OCC21 (stereo unspecified)
[2]
  viability at 10 µM: 43.9%
[3]
  Activity: 82.1%
[1]
  Activity: Active
[4]
  Activity: 40.4%
[5]
  Activity: Active
[6]
  Activity: 11.3%
[7]
  Activity: 8.78%
[8]
  Activity: 9.3%
[9]
  Activity: 4.43%
[10]
  Activity: Active
[11]
  Activity: Active
[12]
  Activity: 46.8%

## COc1c(CC=C(C)C)c(O)cc2c1[C@@H]1Oc3c(ccc4c3C=CC(C)(C)O4)[C@@H]1CO2
[1]
  Activity: Active

## COc1c(CC=C(C)C)c(O)cc2c1[C@@H]1Oc3c(cc(O)c4c3C=CC(C)(C)O4)[C@@H]1CO2
[1]
  Activity: Active

## COc1c(CC=C(C)C)c(O)cc2oc(=O)c3c4cc(O)c5c(c4oc3c12)C=CC(C)(C)O5
[1]
  Activity: Active

## COc1c(C/C=C(\C)CCC=C(C)C)c(O)cc2c1[C@@H]1Oc3c(cc(O)c4c3C=CC(C)(C)O4)[C@@H]1CO2
[1]
  Activity: Active

From ChEMBL document CHEMBL4414640, “Antiproliferative Pterocarpans and Coumestans from Lespedeza bicolor” (2019)
